From paper PMC11352409, “Subtype-Specific Ligand Binding and Activation Gating in Homomeric and Heteromeric P2X Receptors” (Biomolecules, 2024)

Molecular target: T1, human P2X2 receptors (Homo sapiens, UniProt Q9UBL9)
T1 construct: expressed in transfected cells
T1 sequence (Q9UBL9 1-404 isoform Q9UBL9-2): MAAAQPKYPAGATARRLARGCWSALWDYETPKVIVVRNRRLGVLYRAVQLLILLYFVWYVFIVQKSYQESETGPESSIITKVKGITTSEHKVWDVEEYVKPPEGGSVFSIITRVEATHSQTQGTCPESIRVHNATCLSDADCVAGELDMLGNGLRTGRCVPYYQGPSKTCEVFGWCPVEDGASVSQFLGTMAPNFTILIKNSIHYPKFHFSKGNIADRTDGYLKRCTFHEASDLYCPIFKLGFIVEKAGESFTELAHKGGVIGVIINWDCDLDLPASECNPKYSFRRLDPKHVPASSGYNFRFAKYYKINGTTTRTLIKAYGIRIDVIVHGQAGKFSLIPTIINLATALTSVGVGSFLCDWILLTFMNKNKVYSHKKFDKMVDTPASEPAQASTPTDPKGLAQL
Test: Confocal microscopy binding of fluorescent ATP derivatives to HEK293 cells expressing hP2X2
Conditions: for Binding to receptor: hP2X2, confocal binding signal
Description: For the detection of ligand binding, the cells were incubated with the fluorescent ATP derivatives in chambered coverslips or 96-well plates with cover-slip bottoms. The surface was coated with 0.1 mg/mL of poly-L-lysine for 12 h and washed twice with PBS before seeding the cells at […] density. The cells were suspended 24 h after induction and allowed to settle for two hours before being utilised for the measurements. The solutions were freshly prepared before each experiment. The bulk solution was counter-stained with the red fluorescence dye Dy647. Each confocal voxel covering the cell membrane contained both the signal from the bound ligand and the signal from ligands in the bulk solution. This additional signal, e.g., the fraction of the bulk solution inside a voxel, varied from pixel to pixel and can hardly be described theoretically.
Figure 2 Confocal microscopy was used to characterise the binding of fluorescently tagged ligands to HEK 293 cells stably expressing human P2X2 receptors. (a) Structure of fATP and α,βMe-fATP. The dye DY547P1 is attached to the 2-position of the purine ring through an aminohexylthio-linker. (b) Representative confocal images for quantification of fATP and α,βMe-fATP binding, including approximately 200 stably transfected cells/mm^2. Specific binding is proven by the lack of signal in non-induced cells and in cells expressing P2X2 receptors in the presence of 100 µM ATP. […]
The concentration–binding relationships were normalised to their maximum relative fluorescence intensities at a saturating fATP or α,βMe-fATP concentration.
Measuring the binding of ligands to receptors is challenging. […] Ligand binding was measured in stably transfected HEK293 cells expressing P2X receptors, attached to the glass bottom of the experimental chamber (Figure 2b). Quantifying ligand binding by automated fluorescence methods remains demanding at low expression levels and high ligand concentrations when the background signal becomes significant. To address this issue, we used the red fluorescence dye Dy647 at a concentration of 1 µM [27, 33, 34]. […]

Row | SMILES | Binding to receptor | Fraction of ligand remaining bound at high Mg2+ (hP2X2, fATP binding after application of 10 mM Mg2+)
1 | COCC[N+]1=C(C=CC=C2N(CCCCCC(=O)NCCCCCCSc3nc(N)c4ncn(C5OC(COP(=O)(O)CP(=O)(O)OP(=O)(O)O)C(O)C5O)c4n3)c3ccc(S(=O)(=O)O)cc3C2(C)C)C(C)(C)c2cc(S(=O)(=O)[O-])ccc21 (stereo not drawn) [α,βMe-fATP, 2-[DY-547P1]-AHT-α,βMe-ATP] | robust binding affinity | 
2 | COCC[N+]1=C(C=CC=C2N(CCCCCC(=O)NCCCCCCSc3nc(N)c4ncn(C5OC(COP(=O)(O)OP(=O)(O)OP(=O)(O)O)C(O)C5O)c4n3)c3ccc(S(=O)(=O)O)cc3C2(C)C)C(C)(C)c2cc(S(=O)(=O)[O-])ccc21 (stereo not drawn) [fATP, 2-[DY-547P1]-AHT-ATP] | robust binding affinity | ~ 40%
